Results on seven compounds are retold here after ChEMBL document CHEMBL5291721, “A preclinical secondary pharmacology resource illuminates target-adverse drug reaction associations of marketed drugs” (Nat Commun, 2023).

Targets include Histamine H3 receptor (Homo sapiens, UniProt Q9Y5N1); D(3) dopamine receptor (Homo sapiens, UniProt P35462); Mu-type opioid receptor (Homo sapiens, UniProt P35372); D(1A) dopamine receptor (Homo sapiens, UniProt P21728).
For a further assay, the target named is Acetylcholinesterase (Homo sapiens, UniProt P22303). The class given is functional.
Another assay has as its target T1, D(4) dopamine receptor (Homo sapiens, UniProt P21917).
T1 sequence (P21917 whole entry): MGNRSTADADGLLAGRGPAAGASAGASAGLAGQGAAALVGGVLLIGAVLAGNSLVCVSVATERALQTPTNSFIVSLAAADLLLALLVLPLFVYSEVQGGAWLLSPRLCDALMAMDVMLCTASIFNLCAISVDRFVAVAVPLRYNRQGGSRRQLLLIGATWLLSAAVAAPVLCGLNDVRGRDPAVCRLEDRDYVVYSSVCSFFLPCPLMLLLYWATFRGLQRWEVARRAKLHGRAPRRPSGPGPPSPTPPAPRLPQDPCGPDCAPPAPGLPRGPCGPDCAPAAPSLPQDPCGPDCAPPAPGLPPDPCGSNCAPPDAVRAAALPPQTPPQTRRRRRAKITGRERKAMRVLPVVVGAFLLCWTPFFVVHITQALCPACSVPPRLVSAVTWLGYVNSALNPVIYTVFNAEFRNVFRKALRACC

The target of assay [1] is Sodium-dependent serotonin transporter (Homo sapiens, UniProt P31645).
Assay [2] concerns the target T2, Alpha-1A adrenergic receptor (Homo sapiens, UniProt P35348).
T2 sequence (P35348 whole entry): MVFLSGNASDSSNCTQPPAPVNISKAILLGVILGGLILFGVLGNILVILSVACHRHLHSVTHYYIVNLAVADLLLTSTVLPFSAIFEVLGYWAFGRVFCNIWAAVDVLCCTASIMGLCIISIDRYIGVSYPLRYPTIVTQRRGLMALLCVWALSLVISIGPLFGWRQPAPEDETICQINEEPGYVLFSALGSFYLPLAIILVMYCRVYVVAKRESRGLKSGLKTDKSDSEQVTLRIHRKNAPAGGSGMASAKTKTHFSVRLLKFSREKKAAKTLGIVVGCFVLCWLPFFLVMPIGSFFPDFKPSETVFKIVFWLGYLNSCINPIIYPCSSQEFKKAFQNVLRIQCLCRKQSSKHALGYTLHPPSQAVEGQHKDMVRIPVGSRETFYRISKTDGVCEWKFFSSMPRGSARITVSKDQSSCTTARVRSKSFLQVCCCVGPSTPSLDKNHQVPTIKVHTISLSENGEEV
Format: functional, cell-based.

For assay [3], the target named is T3, 5-hydroxytryptamine receptor 1A (Homo sapiens, UniProt P08908).
T3 sequence (P08908 whole entry): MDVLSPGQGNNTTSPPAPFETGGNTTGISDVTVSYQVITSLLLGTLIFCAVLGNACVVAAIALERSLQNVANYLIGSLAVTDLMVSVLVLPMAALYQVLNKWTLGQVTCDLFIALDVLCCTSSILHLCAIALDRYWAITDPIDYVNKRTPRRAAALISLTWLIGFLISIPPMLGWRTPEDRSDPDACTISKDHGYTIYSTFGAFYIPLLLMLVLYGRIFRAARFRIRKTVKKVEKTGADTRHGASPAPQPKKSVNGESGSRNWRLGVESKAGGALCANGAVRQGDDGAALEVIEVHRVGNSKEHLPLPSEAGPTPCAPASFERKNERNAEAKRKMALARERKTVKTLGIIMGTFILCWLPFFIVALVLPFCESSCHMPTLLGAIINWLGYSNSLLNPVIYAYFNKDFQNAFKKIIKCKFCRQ

Assay [4] concerns the target Sodium-dependent dopamine transporter (Homo sapiens, UniProt Q01959).
The target in assay [5] is T4, Amine oxidase [flavin-containing] A (Homo sapiens, UniProt P21397).
T4 sequence (P21397 whole entry): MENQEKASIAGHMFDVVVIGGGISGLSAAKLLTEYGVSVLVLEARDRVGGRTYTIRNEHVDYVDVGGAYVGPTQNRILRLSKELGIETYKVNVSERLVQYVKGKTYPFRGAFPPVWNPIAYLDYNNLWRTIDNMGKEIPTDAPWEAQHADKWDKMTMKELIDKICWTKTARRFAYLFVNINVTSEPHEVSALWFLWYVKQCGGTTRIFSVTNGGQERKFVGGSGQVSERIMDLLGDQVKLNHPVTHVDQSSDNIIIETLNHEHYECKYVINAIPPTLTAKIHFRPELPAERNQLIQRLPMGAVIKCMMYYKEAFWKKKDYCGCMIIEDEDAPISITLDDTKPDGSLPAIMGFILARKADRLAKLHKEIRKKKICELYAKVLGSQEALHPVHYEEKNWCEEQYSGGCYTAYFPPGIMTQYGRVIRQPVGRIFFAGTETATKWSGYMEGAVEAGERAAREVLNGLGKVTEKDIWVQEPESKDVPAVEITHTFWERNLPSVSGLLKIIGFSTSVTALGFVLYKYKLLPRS
The class given is functional.

Assay [6] addresses Gamma-aminobutyric acid receptor subunit alpha-1 (Rattus norvegicus, UniProt P62813).
Assay [7] deals with T5, Muscarinic acetylcholine receptor M2 (Homo sapiens, UniProt P08172).
T5 sequence (P08172 whole entry): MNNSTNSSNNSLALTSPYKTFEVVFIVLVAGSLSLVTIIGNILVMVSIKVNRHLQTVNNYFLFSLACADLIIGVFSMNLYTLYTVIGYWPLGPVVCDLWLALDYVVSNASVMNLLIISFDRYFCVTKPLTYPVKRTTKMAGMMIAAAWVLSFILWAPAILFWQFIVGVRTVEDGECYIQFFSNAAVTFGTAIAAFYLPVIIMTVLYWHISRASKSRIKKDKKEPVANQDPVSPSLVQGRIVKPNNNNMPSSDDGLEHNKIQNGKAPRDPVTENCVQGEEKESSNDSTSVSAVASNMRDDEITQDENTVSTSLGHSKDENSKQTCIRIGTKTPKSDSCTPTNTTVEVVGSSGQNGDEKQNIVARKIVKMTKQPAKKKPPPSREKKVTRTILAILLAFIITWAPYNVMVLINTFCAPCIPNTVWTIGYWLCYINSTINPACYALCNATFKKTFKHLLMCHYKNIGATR

Assay [8] addresses Sodium-dependent noradrenaline transporter (Homo sapiens, UniProt P23975).
In assay [9] the target is T6, Alpha-2A adrenergic receptor (Homo sapiens, UniProt P08913).
T6 sequence (P08913 whole entry): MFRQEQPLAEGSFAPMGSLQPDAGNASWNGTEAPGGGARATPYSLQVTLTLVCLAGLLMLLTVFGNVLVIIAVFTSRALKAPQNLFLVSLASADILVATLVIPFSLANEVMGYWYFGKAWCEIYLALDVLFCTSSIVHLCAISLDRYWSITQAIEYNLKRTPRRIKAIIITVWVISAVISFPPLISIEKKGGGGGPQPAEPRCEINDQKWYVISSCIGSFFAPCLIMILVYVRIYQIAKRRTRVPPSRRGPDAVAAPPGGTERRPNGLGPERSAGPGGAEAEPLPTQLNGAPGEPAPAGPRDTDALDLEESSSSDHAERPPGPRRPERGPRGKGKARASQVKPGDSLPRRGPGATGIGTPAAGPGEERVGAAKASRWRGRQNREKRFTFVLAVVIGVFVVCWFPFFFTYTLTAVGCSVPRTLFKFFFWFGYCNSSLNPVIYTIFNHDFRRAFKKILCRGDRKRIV

The target in assay [10] is 5-hydroxytryptamine receptor 2B (Homo sapiens, UniProt P41595). The class given is functional, cell-based.

SMILES strings stand for the structures. Where only a bound is given, the exact number is not on record here.
Further: assay procedure not described here.

Acetylcholinesterase, sequence (P22303 whole entry): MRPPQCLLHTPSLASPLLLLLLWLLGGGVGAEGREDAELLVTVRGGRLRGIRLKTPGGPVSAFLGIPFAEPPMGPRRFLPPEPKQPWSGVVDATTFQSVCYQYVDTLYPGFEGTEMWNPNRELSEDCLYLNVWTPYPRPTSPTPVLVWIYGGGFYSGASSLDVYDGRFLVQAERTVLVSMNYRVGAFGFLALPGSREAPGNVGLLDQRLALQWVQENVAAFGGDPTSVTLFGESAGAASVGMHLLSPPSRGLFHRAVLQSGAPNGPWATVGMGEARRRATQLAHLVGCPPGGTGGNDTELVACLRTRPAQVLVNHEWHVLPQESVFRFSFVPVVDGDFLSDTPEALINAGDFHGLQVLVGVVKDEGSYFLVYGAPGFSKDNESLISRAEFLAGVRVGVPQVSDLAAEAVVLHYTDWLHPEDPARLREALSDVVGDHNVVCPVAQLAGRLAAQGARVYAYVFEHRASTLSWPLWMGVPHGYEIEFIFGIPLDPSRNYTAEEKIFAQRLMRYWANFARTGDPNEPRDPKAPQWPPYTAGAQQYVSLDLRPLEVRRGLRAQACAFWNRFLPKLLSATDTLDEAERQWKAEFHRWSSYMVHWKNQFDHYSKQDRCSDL
Sodium-dependent dopamine transporter, sequence (Q01959 whole entry): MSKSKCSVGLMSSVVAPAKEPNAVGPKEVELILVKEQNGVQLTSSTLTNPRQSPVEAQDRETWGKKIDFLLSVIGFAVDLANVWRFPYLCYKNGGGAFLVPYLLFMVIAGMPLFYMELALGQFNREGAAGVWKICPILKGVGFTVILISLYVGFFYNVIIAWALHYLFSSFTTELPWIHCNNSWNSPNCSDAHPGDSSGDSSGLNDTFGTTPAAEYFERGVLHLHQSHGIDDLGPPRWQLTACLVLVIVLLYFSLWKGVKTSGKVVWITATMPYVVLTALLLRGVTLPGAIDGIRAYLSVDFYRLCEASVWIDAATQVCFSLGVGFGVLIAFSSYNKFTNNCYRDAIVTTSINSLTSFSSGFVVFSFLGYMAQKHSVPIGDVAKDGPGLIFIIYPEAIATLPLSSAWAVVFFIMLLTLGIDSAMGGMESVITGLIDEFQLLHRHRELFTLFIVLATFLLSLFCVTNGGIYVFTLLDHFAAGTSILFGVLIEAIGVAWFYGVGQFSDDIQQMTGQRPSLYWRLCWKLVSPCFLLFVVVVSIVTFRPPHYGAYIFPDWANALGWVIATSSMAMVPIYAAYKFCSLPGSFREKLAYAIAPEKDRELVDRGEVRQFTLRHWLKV
Sodium-dependent noradrenaline transporter, sequence (P23975 whole entry): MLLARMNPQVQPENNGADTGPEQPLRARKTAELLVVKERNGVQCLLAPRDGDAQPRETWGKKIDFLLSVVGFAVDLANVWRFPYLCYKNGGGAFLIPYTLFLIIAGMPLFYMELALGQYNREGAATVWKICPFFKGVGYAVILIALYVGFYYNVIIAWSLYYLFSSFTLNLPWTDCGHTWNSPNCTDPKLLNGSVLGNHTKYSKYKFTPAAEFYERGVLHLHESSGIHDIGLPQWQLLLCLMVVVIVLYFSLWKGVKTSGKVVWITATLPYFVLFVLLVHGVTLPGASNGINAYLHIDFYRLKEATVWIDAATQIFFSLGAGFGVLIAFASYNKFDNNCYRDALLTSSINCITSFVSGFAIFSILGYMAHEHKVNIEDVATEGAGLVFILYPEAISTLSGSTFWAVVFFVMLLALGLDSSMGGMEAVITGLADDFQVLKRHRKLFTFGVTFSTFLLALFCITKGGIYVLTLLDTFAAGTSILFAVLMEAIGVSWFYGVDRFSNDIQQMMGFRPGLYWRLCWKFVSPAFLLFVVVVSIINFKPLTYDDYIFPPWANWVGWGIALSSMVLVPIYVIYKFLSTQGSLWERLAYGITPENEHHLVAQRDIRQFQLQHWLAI
D(3) dopamine receptor, sequence (P35462 whole entry): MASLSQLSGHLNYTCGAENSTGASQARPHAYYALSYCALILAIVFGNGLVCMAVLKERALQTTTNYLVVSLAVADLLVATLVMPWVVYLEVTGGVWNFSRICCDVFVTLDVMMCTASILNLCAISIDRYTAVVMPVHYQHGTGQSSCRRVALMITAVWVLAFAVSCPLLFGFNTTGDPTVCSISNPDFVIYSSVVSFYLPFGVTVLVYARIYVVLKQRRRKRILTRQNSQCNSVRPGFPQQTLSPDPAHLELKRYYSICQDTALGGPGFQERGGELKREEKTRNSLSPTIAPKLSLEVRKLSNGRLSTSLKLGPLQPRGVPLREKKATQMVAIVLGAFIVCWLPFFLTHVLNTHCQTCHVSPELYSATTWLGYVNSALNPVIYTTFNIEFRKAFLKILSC
Mu-type opioid receptor, sequence (P35372 whole entry): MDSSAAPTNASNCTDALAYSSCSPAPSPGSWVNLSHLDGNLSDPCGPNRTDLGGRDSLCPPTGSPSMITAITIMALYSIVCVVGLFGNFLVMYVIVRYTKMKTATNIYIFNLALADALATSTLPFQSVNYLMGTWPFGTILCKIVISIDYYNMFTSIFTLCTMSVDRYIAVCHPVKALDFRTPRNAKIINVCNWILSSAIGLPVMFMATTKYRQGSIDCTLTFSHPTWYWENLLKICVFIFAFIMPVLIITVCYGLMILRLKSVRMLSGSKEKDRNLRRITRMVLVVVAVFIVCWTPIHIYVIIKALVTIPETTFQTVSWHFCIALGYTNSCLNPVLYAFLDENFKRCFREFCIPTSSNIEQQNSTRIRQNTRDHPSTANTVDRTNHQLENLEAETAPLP
D(1A) dopamine receptor, sequence (P21728 whole entry): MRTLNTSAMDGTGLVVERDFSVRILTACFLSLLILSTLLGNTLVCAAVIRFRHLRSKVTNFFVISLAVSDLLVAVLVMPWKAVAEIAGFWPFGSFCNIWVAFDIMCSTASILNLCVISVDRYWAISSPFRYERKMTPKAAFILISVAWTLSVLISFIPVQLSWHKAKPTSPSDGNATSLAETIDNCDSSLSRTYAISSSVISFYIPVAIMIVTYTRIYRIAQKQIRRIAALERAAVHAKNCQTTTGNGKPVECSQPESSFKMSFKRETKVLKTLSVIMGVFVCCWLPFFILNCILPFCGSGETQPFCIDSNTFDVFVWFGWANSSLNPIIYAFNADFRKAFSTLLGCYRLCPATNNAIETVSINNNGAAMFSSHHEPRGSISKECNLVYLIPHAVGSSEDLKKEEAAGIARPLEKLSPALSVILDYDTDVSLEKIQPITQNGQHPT
5-hydroxytryptamine receptor 2B, sequence (P41595 whole entry): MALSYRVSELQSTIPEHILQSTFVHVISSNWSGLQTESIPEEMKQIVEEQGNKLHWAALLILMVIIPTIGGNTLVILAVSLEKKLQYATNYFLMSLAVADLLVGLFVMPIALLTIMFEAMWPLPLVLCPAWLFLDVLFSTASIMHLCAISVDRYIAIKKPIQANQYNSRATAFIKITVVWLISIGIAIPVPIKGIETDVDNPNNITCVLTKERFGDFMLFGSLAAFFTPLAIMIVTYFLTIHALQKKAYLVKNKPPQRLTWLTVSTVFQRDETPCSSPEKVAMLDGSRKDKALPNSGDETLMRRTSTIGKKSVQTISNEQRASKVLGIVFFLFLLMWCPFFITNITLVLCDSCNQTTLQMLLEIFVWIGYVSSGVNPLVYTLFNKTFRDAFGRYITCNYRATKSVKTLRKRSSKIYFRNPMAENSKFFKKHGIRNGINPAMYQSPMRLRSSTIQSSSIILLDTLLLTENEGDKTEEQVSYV
Histamine H3 receptor, sequence (Q9Y5N1 whole entry): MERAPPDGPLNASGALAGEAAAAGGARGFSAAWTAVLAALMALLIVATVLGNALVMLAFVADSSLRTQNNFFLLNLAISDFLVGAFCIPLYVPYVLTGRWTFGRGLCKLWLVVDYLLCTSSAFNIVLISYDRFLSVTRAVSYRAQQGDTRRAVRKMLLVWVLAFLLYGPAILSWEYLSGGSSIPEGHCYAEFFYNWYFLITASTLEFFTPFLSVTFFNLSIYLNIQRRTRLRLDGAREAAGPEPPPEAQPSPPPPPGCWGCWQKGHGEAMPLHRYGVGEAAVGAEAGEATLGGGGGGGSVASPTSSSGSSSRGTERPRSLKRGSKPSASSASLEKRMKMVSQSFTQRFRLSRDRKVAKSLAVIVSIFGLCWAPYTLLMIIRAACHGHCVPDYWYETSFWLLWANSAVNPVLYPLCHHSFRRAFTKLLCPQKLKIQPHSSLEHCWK
Gamma-aminobutyric acid receptor subunit alpha-1, sequence (P62813 whole entry): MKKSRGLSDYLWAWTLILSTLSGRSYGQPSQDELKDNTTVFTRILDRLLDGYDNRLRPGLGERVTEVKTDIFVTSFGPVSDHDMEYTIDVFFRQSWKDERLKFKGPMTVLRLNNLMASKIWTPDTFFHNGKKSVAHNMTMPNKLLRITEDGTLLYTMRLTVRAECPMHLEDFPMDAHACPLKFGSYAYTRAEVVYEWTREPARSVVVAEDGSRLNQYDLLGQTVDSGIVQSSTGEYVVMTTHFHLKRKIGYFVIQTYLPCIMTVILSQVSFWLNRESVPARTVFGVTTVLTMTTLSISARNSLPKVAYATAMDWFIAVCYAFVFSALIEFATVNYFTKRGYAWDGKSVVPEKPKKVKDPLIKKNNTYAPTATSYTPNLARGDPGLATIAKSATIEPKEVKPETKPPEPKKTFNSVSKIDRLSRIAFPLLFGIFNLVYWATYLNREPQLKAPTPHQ

What is called AC50 is the concentration giving half of the maximal activity seen. Low readings indicate activity at low concentration, high ones activity only at high concentration. In turn, `CN1CCCN=C1/C=C/c1cccs1` showed an AC50 on Acetylcholinesterase of 10.9 µM.
At D(4) dopamine receptor, `O=c1[nH]c2ccccc2n1C1CCN(CCCC(c2ccc(F)cc2)c2ccc(F)cc2)CC1` [PIMOZIDE] returned a concentration at half-maximal activity (AC50) of 0.0728 µM. In other words, the double-digit nanomolar range.
As to `CN1CCN(CC(=O)N2c3ccccc3C(=O)Nc3cccnc32)CC1` [PIRENZEPINE], the half-maximal activity concentration (AC50) (on Acetylcholinesterase; in assay [1]) was greater than 30 µM in each case.
In the case of `CN/C(=N/CCSCc1nc[nH]c1C)NC#N` [CIMETIDINE], the concentration at half-maximal activity (AC50) on Acetylcholinesterase was greater than 30 µM.
For `CC[C@@]1(O)C[C@H](O[C@H]2C[C@H](N(C)C)[C@H](O[C@H]3C[C@H](O)[C@H](O[C@H]4CCC(=O)[C@H](C)O4)[C@H](C)O3)[C@H](C)O2)c2c(cc3c(c2O)C(=O)c2c(O)cccc2C3=O)[C@H]1C(=O)OC` [ACLARUBICIN], the concentration at half-maximal activity (AC50) (in assay [2]; on Histamine H3 receptor; in assay [3]; in [4]; in assay [5]; in assay [6]) was greater than 30 µM throughout. Moreover, the AC50 (on Acetylcholinesterase; in assay [7]; at D(3) dopamine receptor; in assay [8]; at Mu-type opioid receptor; at D(1A) dopamine receptor) was greater than 30 µM throughout. Further, the AC50 in assay [9] and in assay [10] was greater than 30 µM in each case.
Compound `CC(C)n1c(/C=C/C(O)CC(O)CC(=O)O)c(-c2ccc(F)cc2)c2ccccc21` (stereo unspecified) [FLUVASTATIN] registered an AC50 on Acetylcholinesterase greater than 30 µM.
For `CCOC(=O)C1=C(COCCN)NC(C)=C(C(=O)OC)C1c1ccccc1Cl` (stereo unspecified) [AMLODIPINE], the concentration at half-maximal activity (AC50) on Acetylcholinesterase was greater than 30 µM.
